Counter-ions that a name gives are not always drawn.

Broadly, the melting point is the temperature of the solid-liquid transition. Consider `Cn1nc(-c2ccc(OCC3CCN(C4CCC4)CC3)cc2)c2ccccc2c1=O` (as salt: HCl) [Example 64, 4-[4-(1-Cyclobutyl-piperidin-4-ylmethoxy)-phenyl]-2-methyl-2H-phthalazin-1-one], for which the melting point fell in the range of 256 to 257 °C.

`Cn1nc(-c2ccc(OCC3CCNCC3)cc2)ccc1=O` (as salt: HCl) [Example 66, 2-Methyl-6-[4-(piperidin-4-ylmethoxy)-phenyl]-2H-pyridazin-3-one] showed a melting point of 249 to 251 °C.

`Cn1nc(-c2ccc(OCC3CCN(C4CCC4)CC3)cc2)ccc1=O` (as salt: HCl) [Example 67, 6-[4-(1-Cyclobutyl-piperidin-4-ylmethoxy)-phenyl]-2-methyl-2H-pyridazin-3-one] registered a melting point of 250 to 252 °C. For the molecule `CC(C)N1CCC(COc2ccc(-c3ccc(=O)n(C)n3)cc2)CC1` (as salt: HCl) [Example 68, 6-[4-(1-Isopropyl-piperidin-4-ylmethoxy)-phenyl]-2-methyl-2H-pyridazin-3-one], the melting point fell in the range of 187 to 189 °C.

The molecule `Cn1nc(-c2ccc(OCC3CCN(CC4CC4)CC3)cc2)ccc1=O` (as salt: HCl) [Example 69, 6-[4-(1-Cyclopropylmethyl-piperidin-4-ylmethoxy)-phenyl]-2-methyl-2H-pyridazin-3-one] had a melting point of 230 to 231 °C.

`Cn1nc(-c2ccc(OCC3CCN(C4CCCC4)CC3)cc2)ccc1=O` (as salt: HCl) [Example 70, 6-[4-(1-Cyclopentyl-piperidin-4-ylmethoxy)-phenyl]-2-methyl-2H-pyridazin-3-one] returned a melting point of 250 to 251 °C.

As to `CN1CCC(COc2ccc(-c3ccc(=O)n(C)n3)cc2)CC1` (as salt: HCl) [Example 71, 2-Methyl-6-[4-(1-methyl-piperidin-4-ylmethoxy)-phenyl]-2H-pyridazin-3-one], the melting point fell in the range of 257 to 258 °C. As to `CC(C)N1CCC(Oc2ccc(-c3ccc(=O)n(C)n3)cc2)CC1` (as salt: HCl) [Example 72], the melting point was in the range of 108 to 110 °C. Molecule `C[C@@H]1CCCN1CCCOc1ccc2c(c1)CCc1cc(=O)n(-c3ccccc3)nc1-2` (as salt: HCl) [Example 76, 8-[3-((R)-2-Methyl-pyrrolidin-1-yl)-propoxy]-2-phenyl-5,6-dihydro-2H-benzo[h]cinnolin-3-one] displayed a melting point of 140 to 142 °C. With `Cn1ncc2ccc(OCCCN3CCCCC3)cc2c1=O` (as salt: HCl) [Example 80, 2-Methyl-7-(3-piperidin-1-yl-propoxy)-2H-phthalazin-1-one] the figure was 251 to 252 °C. On to `C[C@@H]1CCCN1CCCOc1ccc(-c2ccc(=O)n(-c3ccccc3)n2)cc1F` (as salt: HCl) [Example 81, 6-{3-Fluoro-4-[3-((R)-2-methyl-pyrrolidin-1-yl)-propoxy]-phenyl}-2-phenyl-2H-pyridazin-3-one], for which the melting point is 190 to 191 °C. The result for `C[C@@H](COc1ccc(-c2ccc(=O)n(C)n2)cc1)CN1CCC[C@H]1C` (as salt: HCl) [Example 82, 2-Methyl-6-{4-[(R)-2-methyl-3-((R)-2-methyl-pyrrolidin-1-yl)-propoxy]-phenyl}-2H-pyridazin-3-one] reads 76 to 78 °C; that for `Cc1nn(C)c(=O)cc1-c1ccc(OCCCN2CCC[C@H]2C)cc1` (as salt: HCl) [Example 86, 2,6-Dimethyl-5-{4-[3-((R)-2-methyl-pyrrolidin-1-yl)-propoxy]-phenyl}-2H-pyridazin-3-one], 176 to 178 °C; that for `O=c1cc(-c2ccc(OCCCN3CCCCC3)cc2)cnn1-c1ccccn1` (as salt: HCl) [Example 95, 5-[4-(3-Piperidin-1-yl-propoxy)-phenyl]-2-pyridin-2-yl-2H-pyridazin-3-one], 266 to 268 °C. `O=c1cc(-c2ccc(OCCCN3CCCCCC3)cc2)cnn1-c1ccccn1` (as salt: HCl) [Example 96, 5-[4-(3-Azepan-1-yl-propoxy)-phenyl]-2-pyridin-2-yl-2H-pyridazin-3-one] showed a melting point of 230 to 232 °C. Molecule `Cc1n[nH]c(=O)cc1-c1ccc(OC2CCN(C3CCC3)CC2)cc1` (as salt: HCl) [Example 103, 5-[4-(1-Cyclobutyl-piperidin-4-yloxy)-phenyl]-6-methyl-2H-pyridazin-3-one] showed a melting point of 296 to 297 °C. With `Cc1nn(-c2ccsc2)c(=O)cc1-c1ccc(OC2CCN(C3CCC3)CC2)cc1` (as salt: HCl) [Example 107, 5-[4-(1-Cyclobutyl-piperidin-4-yloxy)-phenyl]-6-methyl-2-thiophen-3-yl-2H-pyridazin-3-one] the figure was 277 to 279 °C; with `Cc1nn(-c2ccsc2)c(=O)cc1-c1ccc(OCCCN2CCC[C@H]2C)cc1` (as salt: HCl) [Example 108, 6-Methyl-5-{4-[3-((R)-2-methyl-pyrrolidin-1-yl)-propoxy]-phenyl}-2-thiophen-3-yl-2H-pyridazin-3-one], 212 to 213 °C; with `CC1CC(c2ccc(OC3CCN(C4CCC4)CC3)cc2)=NNC1=O` (centres unmarked) (as salt: HCl) [Example 116, 6-[4-(1-Cyclobutyl-piperidin-4-yloxy)-phenyl]-4-methyl-4,5-dihydro-2H-pyridazin-3-one], 257 to 259 °C. The result for `C[C@@H]1CCCN1CCCOc1ccc(-c2ccc(=O)[nH]n2)cc1F` (as salt: HCl) [Example 119, 6-{3-Fluoro-4-[3-((R)-2-methyl-pyrrolidin-1-yl)-propoxy]-phenyl}-2H-pyridazin-3-one] reads 252 to 253 °C; that for `O=c1ccc(-c2ccc(OCCCN3CCCCC3)c(F)c2)n[nH]1` (as salt: HCl) [Example 120, 6-[3-Fluoro-4-(3-piperidin-1-yl-propoxy)-phenyl]-2H-pyridazin-3-one], 240 to 242 °C.

Molecule `CC1CC(c2ccc(OCCCN3CCC[C@H]3C)cc2)=NNC1=O` (stereo partly drawn) (as salt: HCl) [Example 121, 4-Methyl-6-{4-[3-((R)-2-methyl-pyrrolidin-1-yl)-propoxy]-phenyl}-4,5-dihydro-2H-pyridazin-3-one] gave a melting point of 201 to 203 °C.

`Cc1cc(-c2ccc(OCCCN3CCC[C@H]3C)cc2)n[nH]c1=O` (as salt: HCl) [Example 122, 4-Methyl-6-{4-[3-((R)-2-methyl-pyrrolidin-1-yl)-propoxy]-phenyl}-2H-pyridazin-3-one]: the melting point lay in the range of 207 to 208 °C. The result for `Cc1cc(-c2ccc(OCCCN3CCCCC3)cc2)n[nH]c1=O` (as salt: HCl) [Example 123, 4-Methyl-6-[4-(3-piperidin-1-yl-propoxy)-phenyl]-2H-pyridazin-3-one] reads 227 to 229 °C; that for `Cn1nc(-c2ccc(OCCCN3CCC[C@H]3CO)cc2)c2c(c1=O)CCCC2` (as salt: HCl) [Example 124, 4-{4-[3-((S)-2-Hydroxymethyl-pyrrolidin-1-yl)-propoxy]-phenyl}-2-methyl-5,6,7,8-tetrahydro-2H-phthalazin-1-one], 120 to 122 °C.

`C[C@@H]1CCCN1CCCOc1cccc(-c2nn(C)c(=O)c3c2CCC3)c1` (as salt: HCl) [Example 125, 2-Methyl-4-{3-[3-((R)-2-methyl-pyrrolidin-1-yl)-propoxy]-phenyl}-2,5,6,7-tetrahydro-cyclopenta[d]pyridazin-1-one] displayed a melting point of 172 to 174 °C. The result for `Cn1nc(-c2cccc(OCCCN3CCCCC3)c2)c2c(c1=O)CCC2` (as salt: HCl) [Example 126, 2-Methyl-4-[3-(3-piperidin-1-yl-propoxy)-phenyl]-2,5,6,7-tetrahydro-cyclopenta[d]pyridazin-1-one] reads 189 to 190 °C. With `Cn1nc(-c2cccc(OCCCN3CCC[C@H]3CO)c2)c2c(c1=O)CCC2` (as salt: HCl) [Example 127, 4-{3-[3-((S)-2-Hydroxymethyl-pyrrolidin-1-yl)-propoxy]-phenyl}-2-methyl-2,5,6,7-tetrahydro-cyclopenta[d]pyridazin-1-one] the figure was 193 to 194 °C; with `CC(C)n1ncc(-c2ccc(OCCCN3CCC[C@H]3C)cc2)cc1=O` (as salt: HCl) [Example 128, 2-Isopropyl-5-{4-[3-((R)-2-methyl-pyrrolidin-1-yl)-propoxy]-phenyl}-2H-pyridazin-3-one], 251 to 253 °C.

With `O=c1ccc(-c2ccc(OC3CCN(C4CCC4)CC3)nc2)nn1-c1ccccn1` (as salt: HCl) [Example 149, 6-[6-(1-Cyclobutyl-piperidin-4-yloxy)-pyridin-3-yl]-2-pyridin-2-yl-2H-pyridazin-3-one], the melting point is 261 to 262 °C. Molecule `O=C1CCC(c2ccc(OC3CCN(C4CCC4)CC3)cc2)=NN1c1ccccn1` (as salt: HCl) [Example 158, 6-[4-(1-Cyclobutyl-piperidin-4-yloxy)phenyl]-2-pyridin-2-yl-4,5-dihydro-2H-pyridazin-3-one] had a melting point of 263 to 265 °C. The result for `O=C1NN=C(c2ccc(OC3CCN(C4CCC4)CC3)cc2)C2CCC12` (centres unmarked) (as salt: HCl) [Example 172, 5-[4-(1-Cyclobutyl-piperidin-4-yloxy)-phenyl]-3,4-diaza-bicyclo[4.2.0]oct-4-en-2-one] reads 285 to 288 °C; that for `C[C@@H]1CCCN1CCCOc1ccc(C2=NN(c3ccccn3)C(=O)CC2)cc1` (as salt: HCl) [Example 183, 6-{4-[3-((R)-2-Methyl-pyrrolidin-1-yl)-propoxy]-phenyl}-2-pyridin-2-yl-4,5-dihydro-2H-pyridazin-3-one], 203 to 205 °C. With `CC1CC(=O)N(c2ccccn2)N=C1c1ccc(OC2CCN(C3CCC3)CC2)cc1` (centres unmarked) (as salt: HCl) [Example 193, 6-[4-(1-Cyclobutyl-piperidin-4-yloxy)-phenyl]-5-methyl-2-pyridin-2-yl-4,5-dihydro-2H-pyridazin-3-one] the figure was 143 to 145 °C.

`Cc1cc(OCCCN2CCC[C@H]2C)ccc1C1=NNC(=O)CC1` (as salt: HCl) [Example 199, 6-{(R)-2-Methyl-4-[3-(2-methyl-pyrrolidin-1-yl)-propoxy]-phenyl}-4,5-dihydro-2H-pyridazin-3-one] had a melting point of 121 to 123 °C.

Values taken from US8586588B2, “Aryl pyridazinone derivatives and their use as H3 receptor ligands” (Cephalon, Inc., priority 2006, dated 2013).
